Each structure is given as a SMILES string. Where a name gives a salt, the structure may show the parent alone.

T1 sequence (P19156 2-1034 limits assumed): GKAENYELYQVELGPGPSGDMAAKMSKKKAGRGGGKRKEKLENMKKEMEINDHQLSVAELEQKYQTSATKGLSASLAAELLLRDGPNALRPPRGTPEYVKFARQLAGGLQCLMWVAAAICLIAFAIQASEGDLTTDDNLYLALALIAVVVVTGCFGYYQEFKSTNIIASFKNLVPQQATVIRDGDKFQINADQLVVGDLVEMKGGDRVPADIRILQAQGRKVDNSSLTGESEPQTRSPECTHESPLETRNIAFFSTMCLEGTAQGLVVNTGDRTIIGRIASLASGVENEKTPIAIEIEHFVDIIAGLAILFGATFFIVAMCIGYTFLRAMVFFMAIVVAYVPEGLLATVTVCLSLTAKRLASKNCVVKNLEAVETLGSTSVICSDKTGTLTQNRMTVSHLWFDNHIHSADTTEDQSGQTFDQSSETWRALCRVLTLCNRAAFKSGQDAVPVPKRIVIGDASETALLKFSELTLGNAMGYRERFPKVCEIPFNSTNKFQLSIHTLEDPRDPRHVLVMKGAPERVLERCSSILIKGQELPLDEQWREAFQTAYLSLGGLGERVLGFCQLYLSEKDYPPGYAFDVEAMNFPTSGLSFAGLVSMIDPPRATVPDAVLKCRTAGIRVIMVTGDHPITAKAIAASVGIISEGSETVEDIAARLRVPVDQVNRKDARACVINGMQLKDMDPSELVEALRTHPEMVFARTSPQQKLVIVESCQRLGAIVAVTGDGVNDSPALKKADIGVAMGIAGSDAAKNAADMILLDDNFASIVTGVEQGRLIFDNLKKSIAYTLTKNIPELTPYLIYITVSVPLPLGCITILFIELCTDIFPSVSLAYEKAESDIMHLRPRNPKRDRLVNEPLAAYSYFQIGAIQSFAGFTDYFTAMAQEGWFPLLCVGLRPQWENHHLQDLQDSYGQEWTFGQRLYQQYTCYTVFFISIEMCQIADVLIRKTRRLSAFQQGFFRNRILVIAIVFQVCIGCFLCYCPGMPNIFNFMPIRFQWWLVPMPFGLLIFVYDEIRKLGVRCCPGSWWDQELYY
T1 sequence (P18434 whole entry partner): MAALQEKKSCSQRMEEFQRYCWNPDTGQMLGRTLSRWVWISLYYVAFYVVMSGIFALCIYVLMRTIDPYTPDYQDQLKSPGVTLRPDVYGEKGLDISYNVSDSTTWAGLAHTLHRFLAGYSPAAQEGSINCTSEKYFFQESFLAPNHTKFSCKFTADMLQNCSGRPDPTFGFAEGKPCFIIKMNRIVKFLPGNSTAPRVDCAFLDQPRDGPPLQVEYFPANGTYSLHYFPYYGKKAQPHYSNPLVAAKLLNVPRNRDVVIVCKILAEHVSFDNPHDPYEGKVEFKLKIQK

This assay concerns the target T1, H+/K+-ATPase (Sus scrofa, UniProt P19156).
T1 construct: reaction buffer solution (60 mmol/l Tris-HCl buffer solution, pH 7.4) containing hog gastric vesicle; from tissue; host or cells: hog stomach (gastric vesicles, by centrifugation after Rabon et al. 1988)
In words: Inhibition of proton pump (H+/K+-ATPase) activity in hog gastric vesicles. It counts as biochemical. The note with it: K+ specific H+/K+-ATPase activity, pH 7.4, 37° C. for 40 minutes, malachite green. How it is done: 1) Preparation of Gastric Vesicles
Gastric vesicles were prepared from hog stomach by centrifugation (Edd C. Rabon et al., Preparation of Gastric H^+,K^+-ATPase, Methods in enzymology, vol. 157 Academic Press Inc., (1988), pp. 649-654). The protein contents of the prepared gastric vesicles were quantified with a Bicinchoninic Acid (BCA) kit.
2) Measurement of Effect of Inhibiting Proton Pump (H^+/K^+-ATPase) Activity
The effect of inhibiting proton pump activity by the compound of the present invention was measured in a 96-well plate. In this experiment, K^+ specific H^+/K^+-ATPase activity was calculated based on the difference between H^+/K^+-ATPase activity in the presence of K^+ ions and H^+/K^+-ATPase activity in the absence of K^+ ions. In the 96-well plate, to negative and positive control groups, 0.5% dimethylsulfoxide (DMSO) in buffer was added, and to the test groups, the compound of the present invention was added. All the analyses were conducted at room temperature with the reaction volume of 100 μl. To a reaction buffer solution (60 mmol/l Tris-HCl buffer solution, pH 7.4) containing hog gastric vesicle, DMSO and each concentration of compound were added, and then, 10 μl of a 10 mmol/l adenosine triphosphate tris buffer solution (60 mmol/l Tris-HCl buffer solution, pH 7.4) was added to initiate an enzyme reaction. The enzyme reaction was conducted at 37° C. for 40 minutes, 50 μl of a malachite green solution (0.12% malachite green solution, 5.8% ammonium molybdate and 11% tween 20 were mixed at a ratio of 100:67:2 in 6.2 N sulfuric acid) was added to stop the reaction, and 50 μl of 15.1% sodium citrate was added. During the reaction, the amount of monophosphate (Pi) was measured at 570 nm using micro plate reader (FLUOstar Omega, BMG Company). Inhibition rate (%) was measured from the activity values of the control groups and the activity values of various concentrations of the test compound, and IC50 of the test compound was calculated from each % inhibition value of the compound using Logistic 4-parameter function of Sigmaplot 8.0 program.
In the case of `CNC1CCc2c1cn(S(=O)(=O)c1cccc(Cl)c1)c2-c1cscc1C` (stereo not drawn) [Example 34, 2-((3-chlorophenyl)sulfonyl)-N-methyl-1-(4-methylthiophen-3-yl)-2,4,5,6-tetrahydrocyclopenta[c]pyrrol-4-amine], 690 nM corresponded to half-maximal inhibition (IC50).
Then `CNC1CCCCc2c1cn(S(=O)(=O)c1cccnc1)c2-c1ccccc1F` (stereo not drawn) [Example 146, 1-(2-fluorophenyl)-N-methyl-2-(pyridin-3-ylsulfonyl)-2,4,5,6,7,8-hexahydrocyclohepta[c]pyrrol-4-amine], with 4500 nM; and `CNC1CCc2c1cn(S(=O)(=O)c1cccc(Cl)c1)c2-c1ccsc1` (stereo not drawn) [Example 33, 2-((3-chlorophenyl)sulfonyl)-N-methyl-1-(thiophen-3-yl)-2,4,5,6-tetrahydrocyclopenta[c]pyrrol-4-amine], with 320 nM; and `CNC1CCc2c1cn(S(=O)(=O)c1c(Cl)cc(Cl)cc1Cl)c2-c1ccccc1F` (stereo not drawn) [Example 85, 1-(2-fluorophenyl)-N-methyl-2-((2,4,6-trichlorophenyl)sulfonyl)-2,4,5,6-tetrahydrocyclopenta[c]pyrrol-4-amine], with 2190 nM.
As to `CNC1CCc2c1cn(S(=O)(=O)c1c(Cl)cc(C(F)(F)F)cc1Cl)c2-c1ccccc1F` (stereo not drawn) [Example 86, 2-((2,6-dichloro-4-(trifluoromethyl)phenyl)sulfonyl)-1-(2-fluorophenyl)-N-methyl-2,4,5,6-tetrahydrocyclopenta[c]pyrrol-4-amine], the IC50 (in general, the concentration that gives 50% inhibition) was 5950 nM.
Regarding `CNC1NCc2c1cn(S(=O)(=O)c1cccc(Cl)c1)c2-c1ccccc1F` (stereo not drawn) [Example 115, 5-((3-chlorophenyl)sulfonyl)-4-(2-fluorophenyl)-N-methyl-1,2,3,5-tetrahydropyrrolo[3,4-c]pyrrol-1-amine hydrochloride], the IC50 came out at 40000 nM. Against the preceding molecule, the IC50 is about 6.7-fold higher.
In the case of `CNC1CCc2c1cn(S(=O)(=O)c1ccc(OC(F)(F)F)cc1Cl)c2-c1ccccc1F` (stereo not drawn) [Example 68, 2-((2-chloro-4-(trifluoromethoxy)phenyl)sulfonyl)-1-(2-fluorophenyl)-N-methyl-2,4,5,6-tetrahydrocyclopenta[c]pyrrol-4-amine] it was 840 nM.
As to `CN(C)C1CCCc2c1cn(S(=O)(=O)c1cccc(Cl)c1)c2-c1ccccc1F` (stereo not drawn) [Example 138, 2-((3-chlorophenyl)sulfonyl)-1-(2-fluorophenyl)-N,N-dimethyl-4,5,6,7-tetrahydro-2H-isoindole-4-amine], half-maximal inhibition (IC50) was put at 7100 nM. This IC50 lies about 8.5-fold higher than the previous one.
Take `CNC1CCCc2c1cn(S(=O)(=O)c1cccc(F)c1)c2-c1ccccc1F` (stereo not drawn) [Example 120, 1-(2-fluorophenyl)-2-((3-fluorophenyl)sulfonyl)-N-methyl-4,5,6,7-tetrahydro-2H-isoindole-4-amine]: the half-maximal inhibitory concentration (IC50) worked out at 1500 nM.
In the case of `CNC1CCc2c1cn(S(=O)(=O)c1cccnc1)c2-c1ccc(Cl)cc1F` (stereo not drawn) [Example 91, 1-(4-chloro-2-fluorophenyl)-N-methyl-2-(pyridin-3-ylsulfonyl)-2,4,5,6-tetrahydrocyclopenta[c]pyrrol-4-amine] it was 690 nM; in that of `CNC1CCc2c1cn(S(=O)(=O)c1ccc(Cl)c(Cl)c1)c2-c1ccccc1F` (stereo not drawn) [Example 76, 2-((3,4-dichlorophenyl)sulfonyl)-1-(2-fluorophenyl)-N-methyl-2,4,5,6-tetrahydrocyclopenta[c]pyrrol-4-amine], 490 nM; in that of `CNC1CCc2c1cn(S(=O)(=O)c1ccc(Oc3ccccc3)nc1)c2-c1ccccc1F` (stereo not drawn) [Example 96, 1-(2-fluorophenyl)-N-methyl-2-((6-phenoxypyridin-3-yl)sulfonyl)-2,4,5,6-tetrahydrocyclopenta[c]pyrrol-4-amine], 800 nM.
Then `CNC1CCc2c1cn(S(=O)(=O)c1cccc(Cl)c1)c2-c1ccccc1C1CC=CC1` (stereo not drawn) [Example 6, 2-((3-chlorophenyl)sulfonyl)-1-(2-(cyclopent-3-en-1-yl)phenyl)-N-methyl-2,4,5,6-tetrahydrocyclopenta[c]pyrrol-4-amine], with 1320 nM; and `CCNC1CCc2c1cn(S(=O)(=O)c1cccnc1)c2-c1ccccc1F` (stereo not drawn) [Example 103, N-ethyl-1-(2-fluorophenyl)-2-(pyridin-3-ylsulfonyl)-2,4,5,6-tetrahydrocyclopenta[c]pyrrol-4-amine], with 1790 nM; and `CNC1CCc2c1cn(S(=O)(=O)c1cccc(F)c1)c2-c1cc(Cl)ccc1Cl` (stereo not drawn) [Example 51, 1-(2,5-dichlorophenyl)-2-((3-fluorophenyl)sulfonyl)-N-methyl-2,4,5,6-tetrahydrocyclopenta[c]pyrrol-4-amine], with 650 nM.
In turn, `CNC1CCc2c1cn(S(=O)(=O)c1cccc(Cl)c1)c2-c1ccc(Cl)cc1Cl` (stereo not drawn) [Example 21, 2-((3-chlorophenyl)sulfonyl)-1-(2,4-dichlorophenyl)-N-methyl-2,4,5,6-tetrahydrocyclopenta[c]pyrrol-4-amine] displayed a 50% inhibitory concentration (IC50) of 900 nM. This IC50 and that of the molecule before are within 1.5-fold of each other.
As to `CNC1CCc2c1cn(S(=O)(=O)c1cccc(Cl)c1)c2-c1ccccc1N1CCOCC1` (stereo not drawn) [Example 7], the IC50 was determined as 40000 nM.
Then `CNC1CCc2c1cn(S(=O)(=O)c1cccc(N(C)C)c1)c2-c1ccccc1F` (stereo not drawn) [Example 56, 2-((3-(dimethylamino)phenyl)sulfonyl)-1-(2-fluorophenyl)-N-methyl-2,4,5,6-tetrahydrocyclopenta[c]pyrrol-4-amine], with 1720 nM.
Consider `CNC1CCc2c1cn(S(=O)(=O)c1ccc(C)nc1Cl)c2-c1ccccc1F` (stereo not drawn) [Example 99, 2-((2-chloro-6-methylpyridin-3-yl)sulfonyl)-1-(2-fluorophenyl)-N-methyl-2,4,5,6-tetrahydrocyclopenta[c]pyrrol-4-amine], for which the IC50 was determined as 6780 nM.
Then `CNC1CCc2c1cn(Cc1ccccc1)c2-c1ccccc1F` (stereo not drawn) [Example 109, 2-benzyl-1-(2-fluorophenyl)-N-methyl-2,4,5,6-tetrahydrocyclopenta[c]pyrrol-4-amine], with 6240 nM.
Then `CNC1CCc2c1cn(S(=O)(=O)c1cccc(Cl)c1)c2-c1ccc(C(F)(F)F)cc1` (stereo not drawn) [Example 16, 2-((3-chlorophenyl)sulfonyl)-N-methyl-1-(4-(trifluoromethyl)phenyl)-2,4,5,6-tetrahydrocyclopenta[c]pyrrol-4-amine], with 970 nM.
`CN(C)C1CCCc2c1cn(S(=O)(=O)c1cccnc1)c2-c1ccccc1F` (stereo not drawn) [Example 144, 1-(2-fluorophenyl)-N,N-dimethyl-2-(pyridin-3-ylsulfonyl)-4,5,6,7-tetrahydro-2H-isoindole-4-amine]: the 50% inhibitory concentration (IC50) was determined as 8000 nM. This IC50 lies about 8.2-fold higher than the previous one.
In the case of `CNC1CCCc2c1cn(S(=O)(=O)c1cc(Cl)ccc1F)c2-c1ccccc1F` (stereo not drawn) [Example 126, 2-((5-chloro-2-fluorophenyl)sulfonyl)-1-(2-fluorophenyl)-N-methyl-4,5,6,7-tetrahydro-2H-isoindole-4-amine] it was 4000 nM; in that of `CNC1CCc2c1cn(S(=O)(=O)c1cc(Cl)ccc1Cl)c2-c1ccccc1F` (stereo not drawn) [Example 70, 2-((2,5-dichlorophenyl)sulfonyl)-1-(2-fluorophenyl)-N-methyl-2,4,5,6-tetrahydrocyclopenta[c]pyrrol-4-amine], 430 nM.
Then `CNC1CCc2c1cn(S(=O)(=O)c1cccc(Cl)c1)c2-c1cccc(C(F)(F)F)c1` (stereo not drawn) [Example 10, 2-((3-chlorophenyl)sulfonyl)-N-methyl-1-(3-(trifluoromethyl)phenyl)-2,4,5,6-tetrahydrocyclopenta[c]pyrrol-4-amine], with 970 nM.
On to `CNC1CCc2c1cn(S(=O)(=O)c1cccc(Cl)c1)c2-c1ccccc1Cl` (stereo not drawn) [Example 5, 1-(2-chlorophenyl)-2-((3-chlorophenyl)sulfonyl)-N-methyl-2,4,5,6-tetrahydrocyclopenta[c]pyrrol-4-amine], for which half-maximal inhibition (IC50) was put at 740 nM.
For `CNC1CCc2c1cn(S(=O)(=O)c1cccc(Cl)c1)c2-c1ccccc1C` (stereo not drawn) [Example 4, 2-((3-chlorophenyl)sulfonyl)-N-methyl-1-(o-tolyl)-2,4,5,6-tetrahydrocyclopenta[c]pyrrol-4-amine], the 50% inhibitory concentration (IC50) came out at 610 nM.
Consider `CNC1CCCc2c1cn(S(=O)(=O)c1cccnc1)c2-c1ccccc1F` (stereo not drawn) [Example 131, 1-(2-fluorophenyl)-N-methyl-2-(pyridin-3-ylsulfonyl)-4,5,6,7-tetrahydro-2H-isoindole-4-amine], for which the IC50 stood at 1500 nM.
`CNC1CCc2c1cn(S(=O)(=O)c1cccnc1)c2-c1ccc(C)cc1F` (stereo not drawn) [Example 90, 1-(2-fluoro-4-methylphenyl)-N-methyl-2-(pyridin-3-ylsulfonyl)-2,4,5,6-tetrahydrocyclopenta[c]pyrrol-4-amine] yielded an IC50 of 520 nM.
`CNC1CCc2c1cn(S(=O)(=O)c1cccnc1)c2-c1cc(Cl)ccc1Cl` (stereo not drawn) [Example 92, 1-(2,5-dichlorophenyl)-N-methyl-2-(pyridin-3-ylsulfonyl)-2,4,5,6-tetrahydrocyclopenta[c]pyrrol-4-amine] came in with an IC50 of 350 nM.

Values taken from US10039747B2, “Tetrahydrocyclopentapyrrole derivatives and a method for preparing the same” (Daewoong Pharmaceutical Co., Ltd., priority 2013, dated 2018).
